Results taken from patent US20180002400A1, “SHORT PEPTIDE-BASED THERAPEUTIC AGENT AND MEDICINAL COMPOSITION INCLUDING THE SAME FOR INHIBITING ACTIVITIES OF CANCER CELLS” (NATIONAL CHENG KUNG UNIVERSITY, priority 2015, published 2018).

Experiments:
[1] = test system: nasopharyngeal cancer HONE1 cell; assay: Sphere formation (cancer stemness) induced by euPTX3; assay type: cell-based, human; settings: short peptide 10 μg/mL or 225 nM + euPTX3 2.5 μg/mL, 2 weeks, FIG. 3A
Procedure: (§1) Each well of the multi-well plate with ultra-low attachment surface (Corning Inc.) was inoculated with the cell density 5×10^3 cells/well of the breast cancer MB231 cell, the lung cancer A549 cell and the nasopharyngeal cancer HONE1 cell, all of which were co-cultured with the short peptides R137, GI40, KT44 (10 μg/mL or 225 nM of the short peptide) and the polypeptide euPTX3 (2.5 μg/mL) of Example 1 in serum-free medium DMEM/F12 (Gibco) [containing B27 (Invitrogen), 20 ng/mL of epidermal growth factor (EGF; Abcam) and 10 ng/mL of basic Fibroblast Growth Factor (bFGF; Peprotech)]. After 2 weeks of cultivation, the cell spheres were observed by optical microscopy.

lung cancer A549 cell [2] = assay: as above; assay type: cell-based, human; settings: short peptide 10 μg/mL or 225 nM + euPTX3 2.5 μg/mL, 2 weeks, FIG. 2A
Procedure: as §1

breast cancer MB231 cell = assay: as above; assay type: cell-based, human; settings: short peptide 10 μg/mL or 225 nM + euPTX3 2.5 μg/mL, 2 weeks, FIG. 1C
Procedure: as §1

[3] = test system: nasopharyngeal cancer HONE1 cell; assay: Cancer cell migration (Boyden chamber) induced by euPTX3; assay type: cell-based, human; settings: HONE1; short peptide 10 μg/mL + euPTX3 2.5 μg/mL; FIG. 3C left panel
Procedure: (§2) The cell density 5×10^4 cells/well of the breast cancer MB231 cell, the lung cancer A549 cell and the nasopharyngeal cancer HONE1 cell were seeded into each upper insert of 24-well plate (containing 8-μm pore insert per well; BD Biosciences) for 19 hours, and each lower well was added with the short peptides RI37, GI40 and KT44 (10 μg/mL or 225 nM of the short peptide) and the polypeptide euPTX3 (2.5 μg/mL) of Example 1, for evaluating the influence of migration of the cancer cell of Example 2 using several short peptides of Example 1.
(§3) The cell density 5×10^4 cells/well of the breast cancer MB231 cell, the lung cancer A549 cell and the nasopharyngeal cancer HONE1 cell were seeded into each upper insert of Boyden chamber for 3 hours of cultivation.
(§4) And then, the medium in each upper insert was replaced by serum-free medium, and the medium in each lower well was added with the short peptides RI37, GI40, KT44 and the polypeptide euPTX3 of Example 1. The cells inside each upper insert were wiped with cotton swabs and removed after 16 hours of cultivation. Remaining cells that had migrated to the bottom of the insert membrane were stained by 4′,6-diamidino-2-phenylindole (DAPI; Invitrogen) and calculated under fluorescence microscopy with 200-fold magnification.

lung cancer A549 cell [4] = assay: as above; assay type: cell-based, human; settings: A549; short peptide 10 μg/mL + euPTX3 2.5 μg/mL; FIG. 2C left panel
Procedure: as §2, §3, §4

[5] = test system: drug-resistant 4T1R breast cancer; assay: Allograft tumor model, CDDP-resistant 4T1R cells in BALB/c mice; assay type: in vivo, mouse; settings: 4T1R in BALB/c mice; for tumor growth (tumor size): 50 μg short peptide intratumorally twice weekly; for tumor growth (tumor size) / drug resistance generated by the tumor: FIG. 4A; for tumor metastasis and growth (images of tumors of various organs, epi-fluorescence radiance efficiency): IVIS imaging; for tumor metastasis (number of metastatic nodules per lung) / tumor growth (tumor weight per lung): sacrificed after six weeks; for tumor metastasis (number of metastatic nodules per lung): FIG. 4B left panel; for tumor growth (tumor weight per lung): FIG. 4B right panel; for drug resistance generated by the tumor: 50 μg short peptide intratumorally twice weekly combined with CDDP 5 mg/kg i.p. once weekly
Procedure: In this Example, 1×10^6 mCherry fluorescent protein-labeled CDDP-resistant mouse 4T1 cells (4T1R; ATCC CRL-2539) were inoculated subcutaneously to the rear side of the back of six to eight-week-old female BALB/c mice (purchased from Laboratory Animal Center of National Cheng Kung University). After 1 week of inoculation, the mice were intraperitoneally injected with 5 mg/kg of CDDP [dissolved in 1% (w/v) DMSO] or only 1% (w/v) of DMSO once weekly, and intratumorally uninjected or injected with 50 μg of the short peptides RI37, GI40 and KT44 of Example 1 twice weekly. The mice were sacrificed after six weeks of inoculation. Spleen, kidneys, lungs and liver were obtained, tumor weight of those organs were measured according to 6 replications per group, and the metastatic activity and the number of metastatic nodules per organ were confirmed by IVIS Spectrum Imaging System 200 (Caliper). The tumor size was measured by a commercial external caliper, and the tumor volume (V) was calculated by the following formula (I): […]
In the formula (I), w was referred to tumor width, l was referred to tumor length. Each condition of the experiment was repeated at least thrice.

Substance	number of spheres induced by the polypeptide euPTX3 [1]	number of spheres induced by the polypeptide euPTX3 (lung cancer A549 cell [2])	number of spheres induced by the polypeptide euPTX3 (breast cancer MB231 cell)	migrated cell numbers induced by the polypeptide euPTX3 [3]	migrated cell numbers induced by the polypeptide euPTX3 (lung cancer A549 cell [4])	tumor growth (tumor size) [5]	metastatic nodules in organs (imaging) ([5]; FIG. 4C)	tumor metastasis and growth (images of tumors of various organs, epi-fluorescence radiance efficiency) ([5]; FIG. 4C)	tumor metastasis (number of metastatic nodules per lung) [5]	tumor growth (tumor weight per lung) [5]	drug resistance generated by the tumor [5]
KT44: artificially synthetic peptide having the amino acid sequence listed as SEQ ID NO:3 (KLVAEAMVSLGRWTHLCGTWNSEEGLTSLWVNGELAATTVEMAT; The 255th amino acid to 298th amino acid of Human sapiens PTX3 (KT44))	could not inhibit the number of spheres	could not inhibit the number of spheres	could not inhibit the number of spheres	could not inhibit the migrated cell numbers	could not inhibit the migrated cell numbers	could not significantly inhibit the tumor growth	metastatic nodules was found in lungs	could not significantly inhibit tumor metastasis and growth	could not significantly inhibit tumor metastasis	could not significantly inhibit tumor metastasis and growth	–
RI37: artificially synthetic short peptide having the amino acid sequence listed as SEQ ID NO:1, designed from human PTX3 (NP_002843.2) (RPMRLESFSACIWVKATDVLNKTILFSYGTKRNPYEI; The 200th amino acid to 236th amino acid of Human sapiens PTX3 (RI37))	could effectively inhibit the number of spheres	could effectively inhibit the number of spheres	could effectively inhibit the number of spheres	could effectively inhibit the migrated cell numbers	could effectively inhibit the migrated cell numbers	could inhibit tumor growth	–	could inhibit tumor metastasis and growth	could inhibit tumor metastasis	could inhibit tumor metastasis and growth	reduce the drug resistance
GI40: artificially synthetic short peptide having the amino acid sequence listed as SEQ ID NO:2, designed from human PTX3 (NP_002843.2) (GGGFDETLAFSGRLTGFNIWDSVLSNEEIRETGGAESCHI; The 320th amino acid to 359th amino acid of Human sapiens PTX3 (GI40))	could effectively inhibit the number of spheres	could effectively inhibit the number of spheres	could effectively inhibit the number of spheres	could effectively inhibit the migrated cell numbers	could effectively inhibit the migrated cell numbers	could inhibit tumor growth	–	could inhibit tumor metastasis and growth	could inhibit tumor metastasis	could inhibit tumor metastasis and growth	reduce the drug resistance
